These results are taken from ChEMBL document CHEMBL5625273, “Antiproliferative activities through accelerating autophagic flux by basidalin and its analogs in human cancer cells” (Bioorg Med Chem Lett, 2024).

Activity calls are given as the source filed them. The calls are words filed in the database; no cut-off is given here. Where only a bound is given, the exact number is not on record here.

In general, IC50 refers to the concentration needed to halve the response being measured. Low values mean greater potency, high ones weaker potency.

Assay type in all cases: functional, cell-based
For assay [1], the system named is HeLa. Put plainly: Antiproliferative activity against human HeLa cells by MTT assay. (Tetrazolium assays rely on reduction of a dye to a coloured formazan, in cell work by metabolically active cells.)
Another assay has as its system PANC-1. Put plainly: Antiproliferative activity against human PANC-1 cells by MTT assay.
Another assay relates to HT-1080. Briefly: Antiproliferative activity against human HT-1080 cells by MTT assay.
For the next assay, the system named is HCT-116. Briefly: Antiproliferative activity against human HCT-116 cells by MTT assay.
The next assay has as its system MCF7. Put plainly: Antiproliferative activity against human MCF7 cells by MTT assay.
The next assay concerns PC-3. Put plainly: Antiproliferative activity against human PC-3 cells by MTT assay.
The next assay relates to SK-MEL-28. Put plainly: Antiproliferative activity against human SK-MEL-28 cells by MTT assay.
Assay [2] deals with HeLa. Put plainly: Effect on p70S6K phosphorylation in human HeLa cells at 100 uM incubated for 24 hrs by Western blot analysis. Background: In western blotting, separated proteins are transferred to a membrane and probed.
Assay [3] deals with HeLa. Briefly: Induction of autophagy in human HeLa cells assessed as increase in LC3-II expression at 100 uM incubated for 24 hrs by Western blot analysis.
The subject of assay [4] is HeLa. Put plainly: Induction of autophagic flux in human HeLa cells assessed as increase in LC3-II expression at 30 to 100 uM incubated for 24 hrs in presence of E64D by Western blot analysis. The settings on record: dose 30-100 µM.
In assay [5] the test system is HeLa. Put plainly: Induction of autophagy in human HeLa cells assessed as increase in LC3-II expression incubated for 24 hrs by Western blot analysis. The note with it: dose 1-30 µM.
For assay [6], the system named is HeLa. Put plainly: Induction of autophagic flux in human HeLa cells assessed as increase in LC3-II expression at 30 to 100 uM incubated for 24 hrs in presence of pepA by Western blot analysis. The settings on record: dose 30-100 µM.
Assay [7] has as its system SH-SY5Y. Put plainly: Induction of autophagic flux in human SH-SY5Y cells expressing GFP-LC3 assessed as increase in LC3 punctae co-localized with LAMP1 at 30 to 100 uM incubated for 24 hrs in presence of E64D. The settings on record: dose 30-100 µM.
Assay [8] deals with HeLa. Put plainly: Effect on p70S6K phosphorylation in human HeLa cells at 1 to 30 uM incubated for 24 hrs by Western blot analysis. The settings on record: dose 1-30 µM.
Assay [9] deals with SH-SY5Y. Put plainly: Induction of autophagic flux in human SH-SY5Y cells expressing GFP-LC3 assessed as increase in LC3 punctae co-localized with LAMP1 at 30 to 100 uM incubated for 24 hrs in presence of pepA. The settings on record: dose 30-100 µM.

Turning to `NC1=CC(=O)O/C1=C/CO`, the IC50 in the assay on HeLa [1], with PANC-1, in the assay on HT-1080, in the assay on HCT-116, in the assay on MCF7 and in the assay on PC-3 was above 100 µM each time. The same compound gave an IC50 in the assay with SK-MEL-28 above 100 µM.
For the compound `CC(=O)NC1=CC(=O)O/C1=C/C=O`, the IC50 came out at 27.7 µM in the assay with HeLa [1]; 16.1 µM in the assay with PANC-1; 46.1 µM in the assay on HT-1080; 27.2 µM in the assay with HCT-116; 38.8 µM with MCF7; 21.7 µM in the assay with PC-3. For the same compound, the IC50 in the assay on SK-MEL-28 was 12.3 µM. The outcome in the assay with HeLa [2] was inactive. Besides, in the assay with HeLa [3], the outcome was Active.
For `NC1=CC(=O)OC1CCO` (stereo not given), the IC50 in the assay with HeLa [1], with PANC-1, with HT-1080, in the assay on HCT-116, in the assay with MCF7 and with PC-3 was above 100 µM throughout. The compound further returned a half-inhibitory concentration (IC50) in the assay on SK-MEL-28 above 100 µM.
For `CC(=O)NC1=CC(=O)O/C1=C/C(OC(C)=O)OC(C)=O`, the IC50 in the assay on HeLa [1] was 44.8 µM; in the assay with PANC-1, 31.3 µM; in the assay on HT-1080, 40.8 µM; in the assay on HCT-116, 29.9 µM; in the assay with MCF7 it was 22.4 µM; in the assay with PC-3, 42.6 µM. The compound further had an IC50 in the assay with SK-MEL-28 of 37.1 µM. Further, in the assay with HeLa [2], the result was inactive. Further, the result with HeLa [3] was Active.
As for `NC1=CC(=O)O/C1=C/C=O`, the outcome in the assay with HeLa [4], in the assay with HeLa [6], in the assay on SH-SY5Y [7] and in the assay with SH-SY5Y [9] was Active. Besides, the IC50 turned out to be 15.6 µM with HeLa [1]; 5.29 µM in the assay on PANC-1; 11.6 µM in the assay with HT-1080; 5.35 µM with HCT-116; 7.87 µM in the assay on MCF7; 9.79 µM in the assay on PC-3. This compound yielded an IC50 in the assay on SK-MEL-28 of 5.87 µM. In the assay on HeLa [5], the Activity result was “Dose-Dependent Effect”. Moreover, the outcome in the assay on HeLa [8] was inactive.
